Holding throughout (type): cell-based, human
Data set [1] has as its system HT-29 (colon cancer cell line). The data set is described as follows: Antiproliferative assay. Conditions: Homo sapiens, read-out: Antiproliferative Activity IC50 ± SEM, HT-29. Here is the method: (§1) 4.2.1.2. Assay for antiproliferative effect
(§2) To explore the antiproliferative potential of compounds MTT assay was performed according to previously reported procedure using different cell lines to explore the antiproliferative potential of compounds propidium iodide fluorescence assay was performed using different cell lines. To calculate the total nuclear DNA, a fluorescent dye (propidium iodide, PI) is used which can attach to the DNA, thus offering a quick and precise technique. PI cannot pass through the cell membrane and its signal intensity can be considered as directly proportional to quantity of cellular DNA. Cells whose cell membranes are damaged or have changed permeability are counted as dead ones. The assay was performed by seeding the cells of different cell lines at a density of 3000-7500 cells/well (in 200µl […]
(§3) atmospheric conditions. The medium was removed; the compounds were added to the plates at 10 µM concentrations (in 0.1% DMSO) in triplicates, followed by incubation for 48 h. DMSO (0.1%) was used as control. After incubation, medium was removed followed by the addition of PI (25 µl, 50µg/mL in water/medium) to each well of the plates. At -80 °C, the plates were allowed to freeze for 24 h, followed by thawing at 25 °C. A fluorometer (Polar-Star BMG Tech) was used to record the readings at excitation and emission wavelengths of 530 and 620 nm for each well. The percentage cytotoxicity of compounds was calculated using the following formula:
(§4) Where ATC= Absorbance of treated cells and AC= Absorbance of control. […]
(§5) positive control in the assay.

Data set [2] concerns A-549 (epithelial cancer cell line). Description: Antiproliferative assay. Conditions: Homo sapiens, A549; read-out: Antiproliferative Activity IC50 ± SEM, A-549. How it is done: as §1, §2, §3, §4, §5
The subject of data set [3] is MCF-7 (breast cancer cell line). Description: Antiproliferative assay. Conditions: Homo sapiens, MCF7; read-out: Antiproliferative Activity IC50 ± SEM, MCF-7. How it is done: as §1, §2, §3, §4, §5
In data set [4] the test system is Panc-1 (pancreas cancer cell line). The data set is described as follows: Antiproliferative assay. Conditions: Homo sapiens, PANC-1; read-out: Antiproliferative Activity IC50 ± SEM, Panc-1. How it is done: (§6) 4.2. Biological evaluation
4.2.1. Cytotoxic activity using MTT Assay and evaluation of IC50 […]
cells were seeded at a density of 10^4 cells mL-1 in flat-bottomed culture plates containing 96 wells each. After 24 h, medium was removed from the plates and the compounds in (in 0.1% DMSO) were added (in 200 μL medium to yield a final concentration of 0.1% v/v) to the wells of plates. A single […]
incubation, medium was removed completely from the plates followed by addition of MTT (0.4 mg/mL in medium) to each well and subsequent incubation of plates for 3h. MTT (along with the medium) was removed and DMSO (150μL) was added to each well of the culture plates, followed by vortexing and subsequent measurement of absorbance (at 540 nm) using microplate reader. The data […]
as §1, §2, §3, §4, §5

Data set [5] concerns four tested cancer cell lines (A-549, MCF-7, Panc-1, HT-29). Description: Antiproliferative assay, average over the four cell lines. Conditions: for GI50: Homo sapiens, mean of the four cancer cell lines; for fold less potent than 4a (GI50): relative to 4a. Here is the method: The newly synthesized compounds were tested for antiproliferative activity against four different types of cancer cells: A-549 (epithelial cancer cell line), MCF-7 (breast cancer cell line), Panc-1 (pancreas cancer cell line), and HT-29 (colon cancer cell line).
After 24 h, medium was removed from the plates and the compounds in (in 0.1% DMSO) were added (in 200 μL medium to yield a final concentration of 0.1% v/v) to the wells of plates. A single compound was designated with four wells followed by incubation of plates for 96h at 37°C. After incubation, medium was removed completely from the plates followed by addition of MTT (0.4 mg/mL in medium) to each well and subsequent incubation of plates for 3h. MTT (along with the medium) was removed and DMSO (150μL) was added to each well of the culture plates, followed by vortexing and subsequent measurement of absorbance (at 540 nm) using microplate reader. The data are shown as percentage inhibition of proliferation in comparison with controls containing 0.1% 4.2.1.2. Assay for antiproliferative effect
To explore the antiproliferative potential of compounds MTT assay was performed according to previously reported procedure using different cell lines to explore the antiproliferative potential of compounds propidium iodide fluorescence assay was performed using different cell lines. To calculate the total nuclear DNA, a fluorescent dye (propidium iodide, PI) is used which can attach to the DNA, thus offering a quick and precise technique. PI cannot pass through the cell membrane and its signal intensity can be considered as directly proportional to quantity of cellular DNA. Cells whose cell membranes are damaged or have changed permeability are counted as dead ones. The assay was performed by seeding the cells of different cell lines at a density of 3000-7500 cells/well (in 200µl medium) in culture plates followed by incubation for 24h at 37 °C in humidified 5% CO2/95% air atmospheric conditions. The medium was removed; the compounds were added to the plates at 10 µM concentrations (in 0.1% DMSO) in triplicates, followed by incubation for 48 h. DMSO (0.1%) was used as control. After incubation, medium was removed followed by the addition of PI (25 µl, 50µg/mL in water/medium) to each well of the plates. At -80 °C, the plates were allowed to freeze for 24 h, followed by thawing at 25 °C. A fluorometer (Polar-Star BMG Tech) was used to record the readings at excitation and emission wavelengths of 530 and 620 nm for each well. The percentage cytotoxicity of compounds was calculated using the following formula:
Where ATC= Absorbance of treated cells and AC= Absorbance of control. Erlotinib was used as positive control in the assay.

Data set [6] in a line: Cell viability assay (MTT) on normal cell line. Conditions: human, MCF-10A mammary gland epithelial cells, four days. How it is done:
A cell viability test was performed using MCF-10A (human mammary gland epithelial) cell line to investigate the effect of 4a–e and 7a–e on normal cell lines. In this investigation, a concentration of 50 µM of the studied compound is employed for four days, after which cell viability is assessed.
as §6
4.2.1. Cytotoxic activity using MTT Assay and evaluation of IC50
MTT assay was carried out to study the effect of compounds on mammary epithelial cells (MCF-10A). The medium in which cells were propagated contained Dulbecco's modified Eagle's medium (DMEM)/ Ham's F-12 medium (1:1) supplemented with epidermal growth factor (20 ng/mL), hydrocortisone (500 ng/mL), insulin (10 μg/mL), 2 mM glutamine and 10% foetal calf serum. After every 2-3 days, the cells were passaged using trypsin ethylenediamine tetra acetic acid (EDTA). The cells were seeded at a density of 10^4 cells mL-1 in flat-bottomed culture plates containing 96 wells each. After 24 h, medium was removed from the plates and the compounds in (in 0.1% DMSO) were added (in 200 μL medium to yield a final concentration of 0.1% v/v) to the wells of plates. A single compound was designated with four wells followed by incubation of plates for 96h at 37°C. After incubation, medium was removed completely from the plates followed by addition of MTT (0.4 mg/mL in medium) to each well and subsequent incubation of plates for 3h. MTT (along with the medium) was removed and DMSO (150μL) was added to each well of the culture plates, followed by vortexing and subsequent measurement of absorbance (at 540 nm) using microplate reader. […]

Consider `Cn1c(=O)cc(-n2cc(COc3cccc4cccc(OCc5cn(-c6cc(=O)n(C)c7ccccc67)nn5)c34)nn2)c2ccccc21` [Compound 4e, 4,4′-(((naphthalene-1,8-diylbis(oxy))bis(methylene))bis(1H-1,2,3-triazole-4,1-diyl))-bis-(1-methylquinolin-2(1H)-one)], for which the IC50 (commonly the concentration needed to halve the response being measured) worked out at 137 ± 13 nM in data set [1], 123 ± 12 nM in data set [2], 127 ± 12 nM in data set [3] and 135 ± 13 nM in data set [4]. Moreover, the GI50 – broadly, the concentration that inhibits growth by half – in data set [5] came to 130 nM. The “fold less potent than 4a (GI50)” value in data set [5] was “approximately 4 fold”. Besides, the viability (in general, a per cent measure of how many cells are alive, often set against a control) at 96 h, 50 µM in data set [6] was 90%.
Turning to `Cc1ccc2[nH]c(=O)cc(-n3cc(COc4cccc5c(OCc6cn(-c7cc(=O)[nH]c8ccc(C)cc78)nn6)cccc45)nn3)c2c1` [Compound 7b, 4,4′-(((naphthalene-1,5-diylbis(oxy))bis(methylene))bis(1H-1,2,3-triazole-4,1-diyl))-bis-(6-methylquinolin-2(1H)-one)], the IC50 in data set [1] is 67 ± 6 nM; in data set [2] it was 63 ± 6 nM; in data set [3], 65 ± 6 nM; in data set [4], 67 ± 6 nM. It took 65 nM to inhibit growth in data set [5] by half (GI50). This compound displayed a viability at 96 h, 50 µM in data set [6] of 93%.
With `Cn1c(=O)cc(-n2cc(COc3cccc4c(OCc5cn(-c6cc(=O)n(C)c7ccccc67)nn5)cccc34)nn2)c2ccccc21` [Compound 7e, 4,4′-(((naphthalene-1,5-diylbis(oxy))bis(methylene))bis(1H-1,2,3-triazole-4,1-diyl))-bis-(1-methylquinolin-2(1H)-one)], the IC50 in data set [1] came out at 143 ± 14 nM; in data set [2] it was 126 ± 13 nM; in data set [3], 130 ± 13 nM; in data set [4], 136 ± 13 nM. For the same compound, the GI50 in data set [5] was 134 nM. Further, the “fold less potent than 4a (GI50)” value in data set [5] is “approximately 4 fold”. Besides, in data set [6], the viability at 96 h, 50 µM was determined as 85%.
The compound `C#Cc1cccc(Nc2ncnc3cc(OCCOC)c(OCCOC)cc23)c1` [Erlotinib, reference compound] displayed a GI50 in data set [5] of 33 nM.
